Article PMC9953224, “Pharmacokinetic Evaluation of New Drugs Using a Multi-Labelling Approach and PET Imaging: Application to a Drug Candidate with Potential Application in Neuromuscular Disorders” (Biomedicines, 2023)

Key:
[1] = Pharmacokinetics from metabolite-corrected arterial plasma TACs after oral administration; assay type: in vivo, Sprague Dawley Rats
Procedure: (§1) Anaesthesia was induced with 5% isoflurane (IsoFlo®, Abbott Laboratories, Abbott Park, IL, USA) and maintained by 2% of isoflurane in 100% O2. During the experiment, rats were kept normothermic using a heating blanket (Homeothermic Blanket Control Unit; Bruker). The rat was positioned in supine position on an operating table and the two distal hind limbs were fixed forming an approximately 30° angle with the horizontal plane. The surgical region was scrubbed using Betadine, starting in the centre, and making a circular sweep outward. A skin incision was made in the femoral region. Soft tissue was dissected to expose the femoral neurovascular bundle, consisting of femoral vein, artery, and nerve. Fine tip forceps were placed between the artery, vein and nerve and were slowly opened to separate the vessels, exposing an approximately 1 cm length section of artery/vein. The vena profunda femoris was sutured to avoid retrograde bleeding via this vessel, and the sapheno-femoral junction was cauterized. A few millimetres from venatomy, a vascular clip was inserted in the direction of the catheter (to control the flow) and a suture was applied in the opposite direction (to avoid retrograde bleeding). The same operation was carried out both on the femoral vein and femoral artery. An appropriate syringe filled with 50 U/mL Heparin/physiologic saline solution was fixed at the terminus of the catheters and these were filled with heparinized saline solution. On the upper half of the vessel circumference, at a 45° angle, an incision was made and the catheter (fine bore polythene tubing: ID 0.58 mm, OD 0.98 mm) was inserted through the venotomy and advanced to the vascular clip. The vascular clip was then removed, and the catheter advanced distally towards the level of the inguinal ligament. The catheter was finally secured to the femoral vein/artery proximally and distally with 2 single knots using 4–0 braided silk suture. The catheters were connected to an in-house developed system composed by a peristaltic pump and gamma-radiation coincidence detector (Bioscan, B-FC-4100). The femoral artery catheter, the gamma detector, the peristaltic pump, and the femoral vein catheter were thus connected in series, to enable the extracorporeal circulation of blood (flow 150 μL/s from femoral artery to femoral vein) and continuous measurement of radioactivity in the blood (Figure 1).
(§2) The labelled compounds were administrated two different ways: (i) intravenous bolus infusion (ca. 37 MBq in 300 μL of saline solution was injected through the femoral vein catheter) and (ii) oral bolus administration. For oral administration, animals were fasted for 5 h. The radioactive dose (ca. 74 MBq in 300 μL of saline solution) was administered using flexible 20-gauge disposable flexible PTFE feeding needles (Fine Science Tools, F.S.T.) and a small animal Laryngoscope (Penn-Century, Model LS-2) for the correct visualization of the oesophagus. The study was conducted under no carrier added (NCA, dose adjusted to 1 μg/Kg) and carrier added (CA, dose adjusted to 5 mg/Kg) conditions. In all cases, data were imported in real time to an excel sheet using PLX-DAX add-on for Microsoft Excel (measured in volts per second).
(§3) Arterial blood samples (1 per animal) were withdrawn (see Figure 1) from the femoral artery catheter and introduced into a capillary (Microhaematocrit capillaries 75 × 1.55, Nahita). Samples were centrifuged at 11,000× g […] for 10 min and the haematocrit was determined. A second blood sample was withdrawn and the amount of radioactivity of a fixed volume (10 µL) was measured in an automatic gamma counter (2470 Wizard, PerkinElmer) to determine Cb (concentration of radioactivity in blood) and convert data imported with PLX-DAX (Volts per seconds) into Bq/s using a previously determined calibration curve. Values were then expressed as percentage of injected dose per gram of blood (% ID/g). […]

[2] = PET biodistribution after intravenous administration; assay type: in vivo, rats; conditions: 1 µg/Kg
Procedure: Rats were anesthetized by inhalation of 5% isoflurane (IsoFlo®, Abbott Laboratories, Abbott Park, IL, USA) in pure O2 and maintained by 1.5–2% isoflurane in 100% O2. During imaging, rats were kept normothermic using a heating blanket (Homeothermic Blanket Control Unit; Bruker). For intravenous administration, once the animal was under anaesthesia, one of the lateral tail veins was catheterized with a 24-gauge catheter (Introcan Certo®, Bbraun) and [^11C]AHK2.1 or [^11C]AHK2.2 was injected using saline solution as the vehicle (n = 3 for each radiolabelled compound, 26 ± 5 MBq; dose adjusted to 1 µg/Kg) concomitantly with the start of a PET dynamic acquisition. Whole body dynamic images were acquired in 4 bed positions (21 frames: 5 × 5 s per bed, 5 × 30 s per bed, 5 × 60 s per bed, 6 × 120 s per bed; total acquisition time = 79.6 min) in the 400–700 keV energetic window using an eXploreVista-CT small animal PET-CT system (GE Healthcare, Waukesha, WI, USA). After each PET scan, CT acquisitions were also performed (140 µA intensity, 40 kV voltage) to provide anatomical information of each animal as well as the attenuation map for the later reconstruction of the PET images. […] After reconstruction, PET-CT images of the same animal were co-registered and analysed using PMOD image processing tool (PMOD Technologies Ltd., Zürich, Switzerland). […]

[3] = Pharmacokinetics from metabolite-corrected arterial plasma TACs after intravenous administration; assay type: in vivo, Sprague Dawley Rats
Procedure: as §1, §2, §3

FKBP12 = target: T1, FKBP12 (Homo sapiens, UniProt P62942); assay: Competitive ligand binding assay (FKBP/FRB NanoBiT luminescence protein complementation) in HEK293 cells; assay type: cell-based; conditions: rapamycin 30 nM
T1 construct: host or cells: HEK293
Procedure: Briefly, HEK293 (ATCC) cells were transfected with FKBP/FRB NanoBiT Control Pair (Promega, Madison, WI, USA) and kinetic measurements were performed 24 h after transfection with Nano-Glo Live Cell Reagent (Promega), as described by the manufacturer. A total of 30 nM rapamycin (Sigma-Aldrich, Madrid, Spain) and AHK2 (1 μM–10 mM) was sequentially added and each effect was recorded for 10 min. Specific activity was normalized to vehicle, and IC50 was calculated using GraphPad Prism by fitting the data to a four-parameter logistic curve.

T1 sequence (P62942 whole entry): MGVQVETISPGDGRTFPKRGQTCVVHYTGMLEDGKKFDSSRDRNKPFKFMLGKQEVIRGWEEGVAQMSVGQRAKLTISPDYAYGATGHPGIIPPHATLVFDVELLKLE

Row | Structure (SMILES) | Hill function parameter d (initial level of parent fraction) [1] | Hill function parameter a (plateau of parent fraction in plasma) ([1]; 1 µg/Kg) | Hill function parameter a (plateau of parent fraction in plasma) ([1]; 5 mg/Kg) | biodistribution of radioactivity in dynamic PET images [2] | Cp/Cb ratio (radioactivity in plasma / blood) ([3]; arterial blood, rat) | percentage of radioactivity in plasma ([3]; from Cp/Cb and haematocrit 0.44 ± 0.04) | Hill function parameter d (initial level of parent fraction) ([3]; intravenous) | Hill function parameter a (plateau of parent fraction in plasma) ([3]; intravenous, 1 µg/Kg) | Hill function parameter a (plateau of parent fraction in plasma) ([3]; intravenous, 5 mg/Kg) | induction of FKBP12/FRB dimerization (luminescence) (FKBP12)
1 | COc1ccc(SCc2cn(CCN(C)[11CH3])nn2)cc1 [[^11C]AHK2.1] | 1 | 0.10 | 0.13 | accumulation in the gastrointestinal tract, the kidneys and the bladder | 1.44 ± 0.2 | ca. 81% | 1 | 0.075 | 0.29 | 
2 | CN(C)CCn1cc(CSc2ccc(O[11CH3])cc2)nn1 [[^11C]AHK2.2] |  |  |  | rapid accumulation of radioactivity in the kidneys and elimination via urine |  |  |  |  |  | 
3 | CO[C@H]1C[C@@H]2CC[C@@H](C)[C@@](O)(O2)C(=O)C(=O)N2CCCC[C@H]2C(=O)O[C@H]([C@H](C)C[C@@H]2CC[C@@H](O)[C@H](OC)C2)CC(=O)[C@H](C)/C=C(\C)[C@@H](O)[C@@H](OC)C(=O)[C@H](C)C[C@H](C)/C=C/C=C/C=C/1C [rapamycin, reference compound] |  |  |  |  |  |  |  |  |  | induced
